What all share (type): physicochemical
The nature of data set [1]: stability in organic media. The following applies: chloroform, dioxane, ethyl acetate, hexane, tetrahydrofuran, toluene; room temperature or higher (e.g. up to 40° C.).
Data set [2] in a line: water absorption / hygroscopicity.
The next data set is described as follows: solubility in water.
Data set [3] can be described thus: variable temperature X-ray powder diffraction experiment. The following applies: 90° C., after half an hour. As to the method: Variable temperature Powder Diffraction Data Collection was carried out on a Shimadzu XRD-6000X-ray powder diffractometer using Cu Kα radiation. The instrument is equipped with a fine focus X-ray tube. The tube voltage and amperage were set to 40 kV and 40 mA, respectively. The divergence and scattering slits were set at 1° and the receiving slit was set at 0.15 mm. Diffracted radiation was detected by a NaI scintillation detector. A theta-two theta continuous scan at 3°/min (0.4 sec/0.02° step) from 2,5 to 40° 2 θ was used. A silicon standard was analyzed each day to check the instrument alignment. The instrument was equipped with an Anton Paar HTK 1200 high temperature stage and a ceramic sample holder

Data set [4] in a line: storage in humidity chamber, polymorph conversion. The source says:
Crystalline form B in an open glas container is stored in a humidity chamber at relative humidity of 35% and room temperature. Samples were taken prior to storage and after 4, 14, 19 and 21 days of storage under these conditions.
Crystalline form B in an open glas container is stored in a humidity chamber at relative humidity of 60% and room temperature. Samples were taken prior to storage and after 7, 17 and 22 days of storage under these conditions.
Crystalline form B in an open glas container is stored in a humidity chamber at relative humidity of 75% and room temperature. Samples were taken prior to storage and after 6, 13 and 23 days of storage under these conditions.

Structures can show the parent of a compound that is named as a salt.

For the molecule `COc1cccc([C@@]2(O)C[C@H](O)CC[C@@H]2CN(C)C)c1` (racemic) [form A, (1RS,3RS,6RS)-6-Dimethylaminomethyl-1-(3-methoxy-phenyl)cyclohexane-1,3-diol hydrochloride], the “stability in organic media” value in data set [1] was “stable in organic media”. In addition, in data set [2] (up to 60% relative humidity, room temperature, at least up to three weeks), the “resistance to water absorption” value is recorded as “resistant to water absorption”. The solubility in water result in the data set “solubility in water” is given as “very high solubility in water”.
As to `COc1cccc([C@@]2(O)C[C@H](O)CC[C@@H]2CN(C)C)c1` (racemic) [form B, (1RS,3RS,6RS)-6-Dimethylaminomethyl-1-(3-methoxy-phenyl)cyclohexane-1,3-diol hydrochloride], in data set [3], the “solid form conversion on heating” value is “converted to form E”. The “crystalline form found after storage” value in data set [4] is on record as “crystalline form B only”. In addition, in data set [4] (high humidity), the “conversion to another polymorph under high humidity” value was “not converted to another polymorph”.
In the case of `COc1cccc([C@@]2(O)C[C@H](O)CC[C@@H]2CN(C)C)c1` (racemic) [form C, (1RS,3RS,6RS)-6-Dimethylaminomethyl-1-(3-methoxy-phenyl)cyclohexane-1,3-diol hydrochloride], in data set [2] (compared with all known polymorphic forms), the hygroscopicity result is “lowest hygroscopicity of all known polymorphic forms”.

(Values after patent publication US8309610B2, “Crystalline forms of (1RS,3RS,6RS)-6-dimethylaminomethyl-1-(3-methoxyphenyl)cyclohexane-1,3-diol hydrochloride” (priority 2005, dated 2012).)
